Experimental data published in patent US6077872A (priority 1998, dated 2000).
“Also recorded” adds a separate entry of the source. Like-named read-outs stand apart in the source and are kept apart here.

What was measured:
[1] = tested on: ovariectomized rats with osteoporosis; test: Test II: dry femur weight, ash weight and calcium content in ovariectomized rats; details: for ash weight: model-control 282.3 ± 30.5; for calcium content: model-control 341.9 ± 43.9; for dry femur weight: model-control 493.4 ± 28.1
Procedure: Female rats at the age of 3 months were excised of bilateral ovaries under sterilized condition, and were then fed low-calcium diet and offered with deionized water for 75 days, thus made an osteoporosis model.
Female 3-month-aged rats which had been excised of bilateral ovaries under sterilized condition were fed for a week until their wound was cured. Seventy healthy rats were selected and divided randomly into five groups of 14 rats. […] Group 1-5 were administered one time per day and 6 times per week and were also fed low-calcium diet and de-ionized water. The test period was 75 days. […] The bilateral femurs of rats were stripped off and stored in refrigerator. […] The right femur was stored for analysis of Ca content in femur.
(§1) After pulled off soft tissue, the right femur was dried for 5 hours in oven at the temperature of 120° C. until its weight kept a constant (dry weight), then the product was baked for 6 hours in muffle furnace at the temperature of 800° C. until the weight of the product kept a constant which was the ash weight, namely the total amount of inorganic salts. After part of the ash was resolved in dilute hydrochloride, the calcium content of ash was measured by the method of EDTA titration. All data was expressed as X±SD(n). The significance of differences between groups were assessed using the "T-test" method of two groups of small specimen.

rickets-babies = details: for craniomalacia, babies with symptom after the beginning of test: before test 3 (threonate), 4 (carbonate); for pillow-bald, babies with symptom after the beginning of test: before test 9 (threonate), 9 (carbonate); for night-sweat, babies with symptom after the beginning of test: before test 12 (threonate), 13 (carbonate)
Procedure: Fourty rickets-babies at the age of 3-10 months were randomly divided into 2 groups of 20 babies each. […] Test group II, namely the calcium carbonate group, were administered orally calcium carbonate twice a day in a dosage of one bag each time. Each bag of the two kind of calcium preparations contained the same amount of element calcium, namely 150 mg element calcium.
(1) Clinic symptoms mainly included the normal symptoms of rickets-babies such as night-sweat, pillow-bald, craniomalacia, etc.

in vivo = details: rat, in vivo
Excerpt: (2) apparatus: Model WFX-1B Spectrophotometer of Atomic Absorption was produced by The Second Optical Apparatus Factory of Beijing, 83114; P-E 3030 Spectrophotometer of Atomic Absorption was produced by Perkin-Elmer Corp.,USA;DT-100 Single-Pan Balance (1/10^4) was produced by Beijing Optical Apparatus Factory; TJ-6 Centrifuge was produced by Beckman, USA; Model MVS-1 Vortex Mixer was produced by Beijing Beide Scientific Apparatus and Materials Co. Ltd.
Twelve hours after the animals had been fasted, 0.5 mL plasma was sampled by excising eyeballs. The plasma was established as the blank group. Then rats were administered agents once in an amount of 20 mL/kg body weight by pouring into the stomach. 0.5 mL plasma was sampled by taking from eyeballs 0.25,0.5,1,1.5,2,3,4,6,8,12 and 16 hours later after the administration. […] The concentration of calcium was measured by a Model WFX-1B Spectrophotometer of Atomic Absorption.

[2] = tested on: castrated male rats with osteoporosis; details: for length of femur: model 3.26 ± 0.09; for ash weight of femur: model 187.5 ± 18.0; for calcium content of femur: model 245.1 ± 25.7; for dry weight of femur: model 360.0 ± 32.1; for wet weight of femur: model 638.3 ± 57.6
Procedure: as §1
In this test, the measuring methods for serum Ca, P, AKP levels, the bone mineral density, the length of femur, wet weight, dry weight, ash weight, the calcium content and the biomechanics of femur were all the same as in test II.

preschool children = details: for children having normal BMDs: groups I and II
Procedure: Seventy 3-6 years old healthy children whose bone mineral density were medium-lower at a central kindergarten in the suburban county of Beijing were selected as subjects, wherein there are 13 boys and 57 girls. All were healthy children who didn't have any metabolic diseases, liver or kidney diseases, bone wounds and abnormal diseases.
Double blind method was employed during the observation. Every person was administered calcium preparation or placebo twice a day in a dosage of 1 bag each time. […] Group IV, established as blank-control group, was administered placebo which didn't contain calcium. All the above oral preparations were provided by Beijing Juneng Asian-Pacific Life Science Research Center.
(1) Bone mineral density was measured before the test and 1.5 months and 3 months later after the administration of Ca supplements.
The bone mineral density of radius in non-preferred hand was measured at the 1/3 point near the farther-end by a Model BMD400 Single-Photon absorptiometry produced conjointly by Institute of Atomic Energy, Ministry of Nuclear Industry, China and Institute of Broadcasting, Beijing, to obtain mean mineral bone density (BMD, g/cm^2). Each point was scanned twice with a scanning speed of 0.5 mm/sec.
All data was analyzed with a SAS statistical software package.

[3] = tested on: ovariectomized rats with osteoporosis; test: Test II: bone mineral density of femur in ovariectomized rats; details: for bone density F50: center of femur; for bone density F20: proximal position 20%, model-control 0.256 ± 0.022
Procedure: Female 3-month-aged rats which had been excised of bilateral ovaries under sterilized condition were fed for a week until their wound was cured. Seventy healthy rats were selected and divided randomly into five groups of 14 rats. […] Group 1-5 were administered one time per day and 6 times per week and were also fed low-calcium diet and de-ionized water. The test period was 75 days. […] The bilateral femurs of rats were stripped off and stored in refrigerator. After the measurement of the bone mineral density, the left femur was stored for analysis of biomechanical characteristics.
(4) Measurement of bone mineral density. Fresh femur iced in refrigerator was measured of bone mineral content at the center (F50) and the proximal position 20% (F20) of femur by single photon absorptiometry (Model BMD400GI) with a scanning speed of 0.25 mm/s and a precision degree of 99%, the Apparatus was proofread using a standard apparatus provided by Jishuitan Hospital, Beijing. The data was processed by software used clinically. The bone mineral content was expressed by a unit of bone mineral content per square centimeter (BMC/cm^2).

ovariectomized rats = details: for serum Ca / serum P / serum Tr-ACP (in Bessey-Loury unit) / serum AKP (in Bessey-Loury unit): 75 days; for serum Ca: model-control 1.40 ± 0.72; for serum P: model-control 1.91 ± 0.34; for serum Tr-ACP (in Bessey-Loury unit): model-control 8.4 ± 2.8; for serum AKP (in Bessey-Loury unit): model-control 50.3 ± 15
Procedure: (3) Pure synthetic low-calcium diet was formulated by mixing 40% fine wheat flour, 40% maize flour, 10% tyroprotein, 5% peanut oil, 3% AIN-76 mixed salts, 1% AIN-76 mixed vitamins, 1% cellulose and 0.3% DL-methionine, in which the calcium salt in AIN-76 mixed salts was replaced by glucose, and this preparation contains 64 mg calcium/100 g.
The test period was 75 days.
Serum Ca, P and AKP were measured by a 4010 Automatic Biochemical Analyzer. Serum Ca was determined by calorimetric method using methylthymol blue. Serum P was determined by Mono-Reagent Method. Alkaline phosphatase was determined by method of disodium p-nitrophenylphosphonate (AKP) The tartaric-resistant acidic phosphatase (Tr-ACP) mineral was determined by Piedra procedure. All above reagent-box were available from the Clinical Chemicals Sub-plant of Beijing Chemical Plant.

[4] = 2.31 g/kg/d (300 mg calcium; Caltrate-D 0.65 g/kg/d)

Question: What does the source list for `O=C(O)[C@H](O)[C@@H](O)CO` [calcium L-threonate]?
Answer: ash weight ([1]; 100 mg element calcium/kg/d): 308.5 ± 11.4 mg; calcium content ([1]; 100 mg element calcium/kg/d): 387.8 ± 91.9 mg/g dry weight; dry femur weight ([1]; 100 mg element calcium/kg/d): 517 ± 21.8 mg; ash weight ([1]; 200 mg element calcium/kg/d): 325.3 ± 23.5 mg; calcium content ([1]; 200 mg element calcium/kg/d): 455.1 mg/g dry weight; dry femur weight ([1]; 200 mg element calcium/kg/d): 553.0 ± 38.1 mg; ash weight ([1]; 300 mg element calcium/kg/d): 332.4 ± 13.0 mg; calcium content ([1]; 300 mg element calcium/kg/d): 445.7 mg/g dry weight; dry femur weight ([1]; 300 mg element calcium/kg/d): 546.6 ± 22.8 mg; loss of bone matrix (in words) ([1]; rat, in vivo): retard the loss of bone matrix; also recorded: markedly control and inhibit the loss of bone matrix; therapeutic effect on baby rickets (in words) (rickets-babies; 300 mg element calcium): significantly superior to that of calcium carbonate; total symptom improvement (rickets-babies; four weeks): 100%; craniomalacia, babies with symptom after the beginning of test (rickets-babies; four weeks): 0; pillow-bald, babies with symptom after the beginning of test (rickets-babies; four weeks): 0; night-sweat, babies with symptom after the beginning of test (rickets-babies; four weeks): 0; total symptom improvement (rickets-babies; two weeks): 62.5%; rickets-babies free of symptoms (rickets-babies; two weeks of administration (concluding text)): 62%; craniomalacia, babies with symptom after the beginning of test (rickets-babies; two weeks): 2; pillow-bald, babies with symptom after the beginning of test (rickets-babies; two weeks): 7; night-sweat, babies with symptom after the beginning of test (rickets-babies; two weeks): 0; absorption rate constant ka (in vivo): 6.14 h⁻¹; CL/F (in vivo; po): 17.3 mL/min/kg; Vd/F (in vivo; po): 6.69 L/kg; AUC (in vivo; po, 200 mg/kg): 192 µg·h/mL; Cmax (in vivo; po, 200 mg/kg): 27200 ng/mL; half-life (in vivo; po, 200 mg/kg): 267 min; Tmax (in vivo; po, 200 mg/kg, Tmax): 47.8 min; length of femur ([2]; 0.76 g/kg/d): 3.34 ± 0.05 cm; ash weight of femur ([2]; 0.76 g/kg/d): 233.1 ± 19.76 mg; calcium content of femur ([2]; 0.76 g/kg/d): 267.0; dry weight of femur ([2]; 0.76 g/kg/d): 416.7 ± 29.7 g; wet weight of femur ([2]; 0.76 g/kg/d): 688.4 ± 47.4 g; length of femur ([2]; 1.54 g/kg/d): 3.34 ± 0.08 cm; ash weight of femur ([2]; 1.54 g/kg/d): 269.66 ± 23.4 mg; calcium content of femur ([2]; 1.54 g/kg/d): 268.2; dry weight of femur ([2]; 1.54 g/kg/d): 458.1 ± 39.1 g; wet weight of femur ([2]; 1.54 g/kg/d): 720.2 ± 69.7 g; length of femur [2, 4]: 3.35 ± 0.09 cm; ash weight of femur [2, 4]: 278.2 ± 31.8 mg; calcium content of femur [2, 4]: 266.7; dry weight of femur [2, 4]: 473.4 ± 57.2 g; wet weight of femur [2, 4]: 747.3 ± 95.2 g; femur length, weights and calcium content (in words) ([2]; rat, in vivo): markedly higher femur length, wet weight, dry weight, ash weight and calcium content than those of the model group rats; bone mineral density (preschool children; 2 bags/day of 150 mg element calcium, 1.5 month, before test 0.379 (threonate), 0.369 (carbonate)): 0.424 ± 0.038 g/cm^2; extent of BMDs' increase (preschool children; 2 bags/day of 150 mg element calcium, 1.5 months): 11.87%; bone mineral density (preschool children; 2 bags/day of 150 mg element calcium, 3 month, before test 0.379 (threonate), 0.369 (carbonate)): 0.467 ± 0.027 g/cm^2; bone mineral density (preschool children; 2 bags/day of 200 mg element calcium, 1.5 month, before test 0.362 ± 0.026): 0.414 ± 0.027 g/cm^2; extent of BMDs' increase (preschool children; 2 bags/day of 200 mg element calcium, 1.5 months): 14.36%; bone mineral density (preschool children; 2 bags/day of 200 mg element calcium, 3 month, before test 0.362 ± 0.026): 0.460 ± 0.020 g/cm^2; extent of BMDs' increase (preschool children; 2 bags/day of 200 mg element calcium, 3 months): 25.41%; fraction of children whose BMD reached the normal level (preschool children; after 3 months): about 2/3; children having normal BMDs (preschool children; 1.5 months): about 12%; children having normal BMDs (preschool children; 3 months): ~72%; bone density F50 ([3]; 100 mg element calcium/kg/d): 0.289 ± 0.021 BMC/BW; bone density F20 ([3]; 100 mg element calcium/kg/d): 0.288 ± 0.021 BMC/BW; bone density F50 ([3]; 200 mg element calcium/kg/d): 0.282 ± 0.020 BMC/BW; bone density F20 ([3]; 200 mg element calcium/kg/d): 0.315 ± 0.032 BMC/BW; bone density F20 ([3]; 300 mg element calcium/kg/d): 0.314 ± 0.020 BMC/BW; bone density effect (in words) ([3]; versus model-control group): markedly higher than that of model-control group rats; serum Ca (ovariectomized rats; 100 mg element calcium/kg/d): 1.60 ± 0.75 mmol/L; serum P (ovariectomized rats; 100 mg element calcium/kg/d): 2.08 ± 0.66 mmol/L; serum Tr-ACP (in Bessey-Loury unit) (ovariectomized rats; 100 mg element calcium/kg/d): 8.8 ± 1.8 U/L; serum AKP (in Bessey-Loury unit) (ovariectomized rats; 100 mg element calcium/kg/d): 48.7 ± 8.0 U/L; serum Ca (ovariectomized rats; 200 mg element calcium/kg/d): 2.35 ± 0.35 mmol/L; serum P (ovariectomized rats; 200 mg element calcium/kg/d): 1.87 ± 0.58 mmol/L; serum Tr-ACP (in Bessey-Loury unit) (ovariectomized rats; 200 mg element calcium/kg/d): 7.9 ± 2.4 U/L; serum AKP (in Bessey-Loury unit) (ovariectomized rats; 200 mg element calcium/kg/d): 41.4 ± 14 U/L; serum Ca (ovariectomized rats; 300 mg element calcium/kg/d): 2.30 ± 0.75 mmol/L; serum P (ovariectomized rats; 300 mg element calcium/kg/d): 1.88 ± 0.58 mmol/L; serum Tr-ACP (in Bessey-Loury unit) (ovariectomized rats; 300 mg element calcium/kg/d): 7.2 ± 2.1 U/L; serum AKP (in Bessey-Loury unit) (ovariectomized rats; 300 mg element calcium/kg/d): 38.2 ± 10 U/L; AKP and Tr-ACP effect (in words) (ovariectomized rats; chronic feeding): might decrease the AKP and Tr-ACP levels in serum; serum Ca effect (in words) (ovariectomized rats; long-time feeding): markedly raise the serum calcium level; blood P effect (in words) (ovariectomized rats; rat, in vivo): no evidence
